Data on 17 compounds can be found in ChEMBL document CHEMBL1141240, “N-8-Substituted benztropinamine analogs as selective dopamine transporter ligands” (Bioorg Med Chem Lett, 2005).

Assay [1] addresses Sodium-dependent noradrenaline transporter (Homo sapiens, UniProt P23975). The experiment in a line: Displacement of [3H]nisoxetine from NET. In general terms: Displacement assays read how much labelled ligand stays bound in the presence of the test substance.
Assay [2] addresses Sodium-dependent serotonin transporter (Homo sapiens, UniProt P31645). Kind of assay: Displacement of [3H]citalopram from SERT.
Assay [3] deals with T1, Muscarinic acetylcholine receptor M1 (Homo sapiens, UniProt P11229).
T1 sequence (P11229 whole entry): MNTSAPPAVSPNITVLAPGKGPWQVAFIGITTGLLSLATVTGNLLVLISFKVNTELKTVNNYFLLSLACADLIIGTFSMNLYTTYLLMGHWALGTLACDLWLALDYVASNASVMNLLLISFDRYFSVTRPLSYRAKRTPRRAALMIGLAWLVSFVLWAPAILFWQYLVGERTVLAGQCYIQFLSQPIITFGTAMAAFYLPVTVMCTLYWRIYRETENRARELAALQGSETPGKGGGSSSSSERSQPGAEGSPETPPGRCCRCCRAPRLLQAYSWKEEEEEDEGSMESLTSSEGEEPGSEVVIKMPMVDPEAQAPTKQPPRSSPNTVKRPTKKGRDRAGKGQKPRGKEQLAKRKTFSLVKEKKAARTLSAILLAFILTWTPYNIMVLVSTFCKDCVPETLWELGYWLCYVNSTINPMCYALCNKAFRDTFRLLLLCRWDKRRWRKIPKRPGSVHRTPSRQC
The experiment in a line: Displacement of [3H]pirenzepine from Muscarinic receptor M1.

The nature of assay [4]: Selectivity of Muscarinic receptor M1 over DAT.
The nature of assay [5]: Selectivity of SERT over DAT.
A short description of assay [6]: Selectivity of NET over DAT.
Assay [7] has as its target Sodium-dependent dopamine transporter (Rattus norvegicus, UniProt P23977). The experiment in a line: Displacement of [3H]WIN-from DAT in rat brain membrane. Format: cell membranes.

In general, Ki refers to the dissociation constant of the complex between target and ligand, obtained from inhibition or displacement. Read a high Ki as a looser hold on the target.

Chain of Sodium-dependent dopamine transporter (P23977 whole entry): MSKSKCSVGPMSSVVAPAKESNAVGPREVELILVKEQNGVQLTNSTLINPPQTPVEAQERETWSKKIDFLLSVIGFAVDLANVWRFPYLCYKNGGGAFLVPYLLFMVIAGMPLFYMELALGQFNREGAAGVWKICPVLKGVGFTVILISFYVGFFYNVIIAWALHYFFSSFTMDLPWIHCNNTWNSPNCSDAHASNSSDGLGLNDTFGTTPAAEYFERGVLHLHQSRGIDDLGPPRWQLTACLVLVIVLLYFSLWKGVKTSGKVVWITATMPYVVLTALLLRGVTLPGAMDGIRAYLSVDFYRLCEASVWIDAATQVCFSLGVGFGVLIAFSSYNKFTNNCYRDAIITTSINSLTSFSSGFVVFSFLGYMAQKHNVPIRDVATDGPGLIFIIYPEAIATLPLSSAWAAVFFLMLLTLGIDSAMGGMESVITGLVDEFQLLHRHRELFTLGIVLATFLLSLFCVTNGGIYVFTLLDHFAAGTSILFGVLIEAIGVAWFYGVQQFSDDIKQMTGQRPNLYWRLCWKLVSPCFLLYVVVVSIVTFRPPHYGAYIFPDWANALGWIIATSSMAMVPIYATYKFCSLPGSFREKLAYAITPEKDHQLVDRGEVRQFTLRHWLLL
Chain of Sodium-dependent serotonin transporter (P31645 whole entry): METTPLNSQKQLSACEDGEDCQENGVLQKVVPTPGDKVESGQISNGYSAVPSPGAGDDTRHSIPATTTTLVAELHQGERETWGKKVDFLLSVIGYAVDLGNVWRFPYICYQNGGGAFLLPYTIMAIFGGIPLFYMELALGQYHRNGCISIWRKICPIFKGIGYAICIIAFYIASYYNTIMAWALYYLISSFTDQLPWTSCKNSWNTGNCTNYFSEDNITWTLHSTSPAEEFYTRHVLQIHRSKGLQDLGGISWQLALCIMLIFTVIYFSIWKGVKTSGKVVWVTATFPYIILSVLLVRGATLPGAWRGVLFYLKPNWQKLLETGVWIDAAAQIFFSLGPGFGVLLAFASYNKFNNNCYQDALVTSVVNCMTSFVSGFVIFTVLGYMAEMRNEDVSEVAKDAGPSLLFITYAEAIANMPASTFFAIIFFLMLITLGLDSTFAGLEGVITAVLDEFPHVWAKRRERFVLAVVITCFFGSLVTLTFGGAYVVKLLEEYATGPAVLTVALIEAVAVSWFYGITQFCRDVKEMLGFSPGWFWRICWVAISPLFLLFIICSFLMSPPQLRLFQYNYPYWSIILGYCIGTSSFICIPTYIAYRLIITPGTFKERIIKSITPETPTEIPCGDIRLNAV
Chain of Sodium-dependent noradrenaline transporter (P23975 whole entry): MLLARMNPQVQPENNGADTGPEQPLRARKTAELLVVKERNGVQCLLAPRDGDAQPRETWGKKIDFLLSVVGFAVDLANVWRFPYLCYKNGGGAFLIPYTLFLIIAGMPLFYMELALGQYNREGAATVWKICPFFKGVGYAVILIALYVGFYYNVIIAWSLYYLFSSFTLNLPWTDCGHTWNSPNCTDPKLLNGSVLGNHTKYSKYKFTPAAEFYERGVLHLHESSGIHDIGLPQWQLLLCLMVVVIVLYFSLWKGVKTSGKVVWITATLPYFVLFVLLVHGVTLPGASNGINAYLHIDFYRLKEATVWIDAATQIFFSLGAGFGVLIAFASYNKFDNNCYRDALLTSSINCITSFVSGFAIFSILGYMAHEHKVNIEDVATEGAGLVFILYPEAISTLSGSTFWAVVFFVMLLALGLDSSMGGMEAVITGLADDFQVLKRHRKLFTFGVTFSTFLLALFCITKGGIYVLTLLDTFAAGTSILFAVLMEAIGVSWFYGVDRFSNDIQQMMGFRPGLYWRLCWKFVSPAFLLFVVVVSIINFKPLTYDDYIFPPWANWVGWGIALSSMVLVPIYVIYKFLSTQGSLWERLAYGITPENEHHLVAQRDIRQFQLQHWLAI

Regarding `Fc1ccc(C(N[C@H]2C[C@H]3CC[C@@H](C2)N3CCc2c[nH]c3ccccc23)c2ccc(F)cc2)cc1`, the Ki turned out to be 8250 nM in assay [1], 347 nM in assay [2] and 413 nM in assay [3].

Take `CN(C(c1ccc(F)cc1)c1ccc(F)cc1)[C@H]1C[C@H]2CC[C@@H](C1)N2C`: the Ratio Ki is 0.2 in assay [4], 140 in assay [5] and 68 in assay [6]. Moreover, the Ki in assay [1] was 8410 nM; in assay [2] it was 17200 nM; in assay [3], 18.6 nM.

On to `O=C(CCN1[C@@H]2CC[C@H]1C[C@@H](NC(c1ccc(F)cc1)c1ccc(F)cc1)C2)Nc1ccccc1`, for which the Ratio Ki in assay [4] is 551; in assay [5] it was 132; in assay [6], 536. Also, the figures for the Ki in assay [1], in assay [2] and in assay [3] were 2470 nM, 608 nM and 2540 nM, respectively.

Consider `CN1[C@@H]2CC[C@H]1C[C@H](NC(c1ccc(F)cc1)c1ccc(F)cc1)C2`, for which the Ratio Ki came to 0.1 in assay [4], 73 in assay [5] and 230 in assay [6]. For the same compound, the Ki in assay [1] turned out to be 152000 nM; in assay [2] it was 48500 nM; in assay [3], 59.4 nM.

With `CN1[C@@H]2CC[C@H]1C[C@@H](NC(c1ccc(F)cc1)c1ccc(F)cc1)C2`, the figures for the Ratio Ki in assay [4], in assay [5] and in assay [6] were 0.7, 769 and 160, respectively. For the same compound, the results for the inhibition constant Ki in assay [1], in assay [2] and in assay [3] were 1810 nM, 8680 nM and 7.81 nM, respectively.

For the compound `NCCN1[C@@H]2CC[C@H]1C[C@@H](OC(c1ccc(F)cc1)c1ccc(F)cc1)C2`, affinity in assay [7] was put at a Ki of 5.59 nM.

For the compound `CN1[C@@H]2CC[C@H]1C[C@@H](NC(c1ccccc1)c1ccc(Cl)cc1)C2` (stereo partly specified), the Ratio Ki in assay [4] worked out at 0.3; in assay [5], 373; in assay [6], 87. Also, the Ki in assay [1] amounted to 3170 nM; in assay [2] it was 13600 nM; in assay [3], 9.3 nM.

For `Fc1ccc(C(N[C@H]2C[C@H]3CC[C@@H](C2)N3CCCCc2ccccc2)c2ccc(F)cc2)cc1`, the Ratio Ki in assay [4] was 37; in assay [5] it was 43; in assay [6] it was 139. The results for the Ki in assay [1], in assay [2] and in assay [3] were 1630 nM, 502 nM and 438 nM, respectively.

Consider `NCCN1[C@@H]2CC[C@H]1C[C@@H](NC(c1ccc(F)cc1)c1ccc(F)cc1)C2`, for which the Ratio Ki in assay [4] is 169. In addition, the results for the inhibition constant (Ki) in assay [1], in assay [2] and in assay [3] were 3550 nM, 10900 nM and 2110 nM, respectively.

Turning to `Fc1ccc(C(N[C@H]2C[C@H]3CC[C@@H](C2)N3)c2ccc(F)cc2)cc1`, the values for the Ratio Ki in assay [4], in assay [5] and in assay [6] were 18, 491 and 118, respectively. Moreover, the inhibitory constant (Ki) in assay [1] was 997 nM; in assay [2] it was 4150 nM; in assay [3] it was 154 nM.

Consider `Fc1ccc(C(O[C@H]2C[C@H]3CC[C@@H](C2)N3CCc2c[nH]c3ccccc23)c2ccc(F)cc2)cc1`, for which the inhibition constant (Ki) in assay [7] was 29.2 nM.

The compound `O=C(CCN1[C@@H]2CC[C@H]1C[C@@H](OC(c1ccc(F)cc1)c1ccc(F)cc1)C2)Nc1ccccc1` showed a Ki in assay [7] of 6.22 nM.

In the case of `CN1[C@@H]2CC[C@H]1C[C@@H](NC(c1ccc(Cl)cc1)c1ccc(Cl)cc1)C2`, the Ki in assay [1] was determined as 7580 nM; in assay [2] it was 4180 nM; in assay [3] it was 50 nM.

For `CCCCN1[C@@H]2CC[C@H]1C[C@@H](NC(c1ccc(F)cc1)c1ccc(F)cc1)C2`, the Ratio Ki in assay [4] was found to be 21; in assay [5], 123; in assay [6] it was 136. Moreover, the inhibition constant Ki in assay [1] came out at 2920 nM; in assay [2], 2640 nM; in assay [3], 454 nM.

With `CN1C2CCC1CC(OC(c1ccc(F)cc1)c1ccc(F)cc1)C2` (stereo unspecified) [DIFLUOROBENZTROPINE], the inhibitory constant (Ki) amounted to 844 nM in assay [1], 3260 nM in assay [2] and 11.6 nM in assay [3].

With `C=CCN1[C@@H]2CC[C@H]1C[C@@H](NC(c1ccc(F)cc1)c1ccc(F)cc1)C2`, the Ratio Ki in assay [4] was determined as 5; in assay [5] it was 146; in assay [6], 208. Further, the inhibition constant (Ki) in assay [1] worked out at 5580 nM; in assay [2], 3920 nM; in assay [3], 130 nM.

Take `CN1[C@@H]2CC[C@H]1C[C@@H](NC(c1ccc(Cl)c(Cl)c1)c1ccc(Cl)c(Cl)c1)C2`: the Ratio Ki in assay [4] stood at 3; in assay [5], 563; in assay [6], 48. Also, the Ki in assay [1] amounted to 259 nM; in assay [2], 3010 nM; in assay [3], 17.8 nM.
